{
  "source": "patent US10702530B2",
  "about": "“Screening method” (Hoffmann-La Roche Inc., priority 2013, dated 2020)",
  "key": {"FoxM1B/C mRNA": {"tested_on": "FoxM1B/C mRNA", "assay": "Downregulation of FoxM1B/C mRNA by RT-qPCR in human fibroblasts", "format": "cell-based", "conditions": "Fibroblast, 24 hours, Hill fit, read-out: EC50 for decline of FoxM1B/C mRNAs lacking exon 9", "protocol": "(§1) FIGS. 1A, 1B and 1C. Induction of alternative splicing of FoxM1 towards FoxM1A in fibroblasts. Human fibroblasts were incubated with cpds. 1-4 at different doses for 24 hours, and changes in FoxM1A RNA (containing exon A2) and FoxM1B/C (lacking exon A2) mRNA expression were assessed by RT-qPCR. Dose response curves were fitted to a Hill binding equation to estimate the EC50. FIG. 1A., upregulation of FoxM1A mRNA; FIG. 1B., downregulation of FoxM1B/C mRNA; FIG. 1C., Correlation of EC50 values for FoxM1A upregulation and FoxM1B/C downregulation. Data represent means±SEM of 4 independent observations.\n(§2) To investigate an effect on splicing of FoxM1, human fibroblasts were treated for 24 hours with cpds. 1-4 in dose response, and analysed by RT-qPCR for presence of mRNA including (FoxM1A) or excluding (FoxM1B/C) the Δ9 exon. The resulting dose response curves were fitted to a Hill binding equation. […] 1, 2, 3 and 4, respectively. […] 1, 2, 3 and 4, respectively.\n(§3) Fibroblasts, at 10000 cells per cm^2 were treated with varying doses of compounds ([…]) for 24 hours. RNA extraction was performed as per instructions mentioned in the Ambion® Cells-to-CT™ Kits from Applied Biosystems®. RNA samples were frozen at −20° C. until further analysis. Relative expression levels of FoxM1A or FoxM1B/C along with GAPDH for internal control, was measured using one-step multiplex reverse transcription-polymerase chain reaction (RT-PCR). TaqMan® FAM probes were used for relative quantitation of FoxM1A or FoxM1B/C expression levels and TaqMan® VIC probes were used for relative quantitation of human GAPDH levels. The fidelity of the amplification methods was determined using the ΔΔCt relative quantification method for quantitative PCR."}, "FoxM1A mRNA": {"tested_on": "FoxM1A mRNA", "assay": "Upregulation of FoxM1A mRNA by RT-qPCR in human fibroblasts", "format": "cell-based", "conditions": "Fibroblast, 24 hours, Hill fit, read-out: EC50 for increased expression of FoxM1A mRNA including exon 9", "protocol": "as §1, §2, §3"}, "FoxM1A protein [1]": {"tested_on": "FoxM1A protein", "assay": "Western blot, FoxM1A protein in BT474 breast cancer cells", "format": "cell-based, human", "conditions": "BT474, 10 μM", "protocol": "(§4) Upregulation of FoxM1A protein correlates with cytotoxicity in breast cancer cells. Human BT474 breast cancer cells were treated with cpd. 2 at 10 μM for 1 or 2 days under proliferating conditions (in the presence of serum), and total protein extracts analyzed by SDS PAGE and Western Blot for FoxM1A and actin protein levels. To assess if increase in FoxM1A protein by alternative splicing of FoxM1 towards FoxM1A induces cell death in a cancer condition, human breast cancer cells (BT474) were treated to modulate FoxM1 expression, and FoxM1A protein levels were assessed at day 1 and 2 of treatment. On day 1 and 2 under control conditions, FoxM1A was detectable by Western Blot, but at low concentrations. Treatment with cpd. […] 2 at 10 μM, whereas FoxM1A levels were increased in the same samples by nearly 3-fold. When normalized to actin, FoxM1A protein levels increased by 28-fold by treatment with cpd. 2 at 10 μM. […] Data represent means±SEM of 3 independent observations. Statistical comparison was performed by one-way ANOVA followed by Dunnet's post-hoc test. *, p<0.05, ***, p<0.001.\nHuman myoblasts were acquired from ECACC, BT474 cells were obtained from ATCC, and were cultivated according to supplier protocols. For experimental purpose, human myoblasts were cultivated for 5 days and were treated with varying doses of compounds (0.1-10 μM). BT474 cells were cultivated for up to 2 days and treated with compounds at 10 μM. For Western blot analyses, myoblast cells treated over 5 days or BT474 cells treated for 2 days were lysed in boiling Laemmli buffer (Bio-Rad) containing 100 mM dithiothreitol. SDS PAGE blots were probed with rabbit-anti FoxM1 antibody (Cell Signaling Technology, 1:1000), goat anti-Actin (Santa Cruz Biotechnology, 1:20000) and Alexa680/800 secondary antibodies (Molecular Probes, 1:10,000). Fluorescence was acquired with the Odyssey imaging system (Licor Biosciences), FoxM1A intensity was normalized for actin. Data were analyzed using GraphPad software."}, "human fibroblasts [2]": {"tested_on": "human fibroblasts", "assay": "Cell Index (cellular impedance, xCELLigence) in fibroblasts", "format": "cell-based", "conditions": "up to 120 hours, 75% cut-off", "protocol": "(§5) FIGS. 2A, 2B and 2C. Induction of proliferation arrest and cell death by cpds. Alternating FoxM1 splicing towards FoxM1A in fibroblasts. Human fibroblasts were incubated with cpds. 1-4 at different doses for 5 days (120 hours), and changes in cellular impedance (Cell Index) were assessed online. Data are expressed as delta Cell Index after normalization for the starting value of each well. Data at 72, 96 and 120 hour time points (see arrows) were averaged for quantification. FIG. 2A, Micronuclei induction (MNT) in fibroblasts with increasing doses of cpd. 1-4; FIG. 2B, Dose-dependent induction of cytotoxicity by cpds. 1-4. expressed as % of untreated control after 24 hours. A cut-off at 75% (ED75%, dashed line) defined the concentration at which a meaningful impact on proliferation and cell survival was observed. […] 1-4. expressed as % of untreated control. […]\n(§6) For investigation of the effect of altered FoxM1 expression on micronucleus induction (MNT) and cell survival, human fibroblasts were treated for up to 120 hours with cpds. 1-4 in dose response, and MNT, cytotoxicity or Cell Index were assessed on the xCELLigence platform, monitoring proliferation rates and cell death online. To define a quantitative measure for cytotoxic effects, a 2% cut-off for MNT induction (FIG. 2A), a 75% cut-off for cell survival (EC75%), and a 75% cut-off was estimated (ED75%). […]"}, "[3]": {"tested_on": "Human BT474 breast cancer cells", "assay": "Western blot, actin protein in BT474 breast cancer cells", "format": "cell-based", "conditions": "BT474, 10 μM", "protocol": "as §4\n(§7) Human myoblasts were acquired from ECACC, BT474 cells were obtained from ATCC, and were cultivated according to supplier protocols. […] Fluorescence was acquired with the Odyssey imaging system (Licor Biosciences), FoxM1A intensity was normalized for actin. Data were analyzed using GraphPad software."}, "human fibroblasts [4]": {"tested_on": "human fibroblasts", "assay": "Micronuclei induction (MNT) in fibroblasts", "format": "cell-based", "conditions": "dose response, 2% cut-off", "protocol": "as §5, §6"}, "human fibroblasts [5]": {"tested_on": "human fibroblasts", "assay": "Cytotoxicity in fibroblasts", "format": "cell-based", "conditions": "dose response, 75% cut-off, 24 hours", "protocol": "as §5, §6"}, "human primary myoblasts [6]": {"tested_on": "human primary myoblasts", "assay": "Western blot, actin protein in differentiating (non-proliferating) human myoblasts", "format": "cell-based", "conditions": "differentiating conditions (no serum), 5 days, doses up to 10 μM", "protocol": "(§8) FIGS. 6A and 6B. No change in FoxM1A protein and no cytotoxicity in non-proliferating myoblasts. Human myoblasts were treated with cpd. 3 (0.1, 1 and 10 μM) for 5 days under differentiating conditions (in the absence of serum), and total protein extracts analyzed by SDS PAGE and Western Blot for FoxM1A and actin protein levels. FIG. 6A, FoxM1A and actin Western blots from samples treated without (control) or with cpd. 3 (0.1, 1 and 10 μM). Note that FoxM1A protein was undetectable; FIG. 6B, Protein levels of actin. Data represent means±SEM of 3 independent observations. Statistical comparison was performed by one-way ANOVA followed by Dunnet's post-hoc test.\n(§9) To assess if alternative splicing of FoxM1 towards FoxM1A is present also in cells that are not proliferating, the same human primary myoblasts were differentiated to investigate if FoxM1 expression is also present and can be modulated similarly under those conditions. Under differentiating conditions, FoxM1A was undetectable by Western Blot (FIG. 6A). Treatment with cpd.\nas §7"}, "human primary myoblasts [7]": {"tested_on": "human primary myoblasts", "assay": "Western blot, actin protein (surrogate for cell number) in proliferating human myoblasts", "format": "cell-based", "conditions": "proliferating conditions (serum), 5 days, doses up to 10 μM", "protocol": "(§10) FIGS. 5A, 5B and 5C. Upregulation of FoxM1A protein correlates with cytotoxicity in myoblasts. Human myoblasts were treated with cpd. 3 (0.1, 1 and 10 μM) for 5 days under proliferating conditions (in the presence of serum), and total protein extracts analyzed by SDS PAGE and Western Blot for FoxM1A and actin protein levels. FIG. 5A, FoxM1A and actin Western blots from samples treated without (control) or with cpd. 3 (0.1, 1 and 10 μM); FIG. 5B, Protein levels of actin (surrogate for cell number); FIG. 5C, FoxM1A/actin ratio. Data represent means±SEM of 3 independent observations. Statistical comparison was performed by one-way ANOVA followed by Dunnet's post-hoc test. *, p<0.05, **, p<0.01, ***, p<0.001.\n(§11) To assess if alternative splicing of FoxM1 towards FoxM1A results in meaningful changes in the protein levels and cell death, human primary myoblasts were treated under proliferating conditions to modulate FoxM1 expression and evaluate its consequence. Under proliferative conditions, FoxM1A was detectable by Western Blot, but at low concentrations […]. Treatment with cpd. […]\nas §7"}, "FoxM1A protein [8]": {"tested_on": "FoxM1A protein", "assay": "Western blot, FoxM1A protein in differentiating (non-proliferating) human myoblasts", "format": "cell-based", "conditions": "differentiating conditions (no serum), 5 days, doses up to 10 μM", "protocol": "as §8, §9, §7"}, "FoxM1A protein [9]": {"tested_on": "FoxM1A protein", "assay": "Western blot, FoxM1A protein in proliferating human myoblasts", "format": "cell-based", "conditions": "proliferating conditions (serum), 5 days, highest dose (10 μM)", "protocol": "as §10, §11, §7"}},
  "data": [
    {"compound": "CCN1CCC(c2cc(C)c3nc(-c4cc5c(C)nc(C)cn5n4)cc(=O)n3c2)CC1", "note": "[Compound 1, 2-(4,6-dimethylpyrazolo[1,5-a]pyrazin-2-yl)-7-(1-ethylpiperidin-4-yl)-9-methyl-4H-pyrido[1,2-a]pyrimidin-4-one]", "values": [
      {"measurement": "EC50", "setting": "FoxM1B/C mRNA", "result": 724, "unit": "nM"},
      {"measurement": "EC50", "setting": "FoxM1A mRNA", "result": 246, "unit": "nM"}
    ]},
    {"compound": "CCc1nc(C)cn2nc(-c3cc(=O)n4cc(C5=CCNCC5)cc(C)c4n3)cc12", "note": "[Compound 2, 2-(4-ethyl-6-methylpyrazolo[1,5-a]pyrazin-2-yl)-9-methyl-7-(1,2,3,6-tetrahydropyridin-4-yl)-4H-pyrido[1,2-a]pyrimidin-4-one]", "values": [
      {"measurement": "Increase of FoxM1A protein levels normalized to actin", "setting": "FoxM1A protein [1]", "result": 28, "unit": "fold"},
      {"measurement": "Effect on FoxM1A protein", "setting": "FoxM1A protein [1]; day 1", "result": "did not have any effect"},
      {"measurement": "Increase of FoxM1A protein levels", "setting": "FoxM1A protein [1]; day 2 (same samples)", "result": "~3", "unit": "fold"},
      {"measurement": "EC50", "setting": "FoxM1B/C mRNA", "result": 14, "unit": "nM"},
      {"measurement": "Potency in reduction of Cell Index", "setting": "human fibroblasts [2]", "result": "most potent"},
      {"measurement": "Reduction of actin protein", "setting": "[3]; day 1", "result": 18, "unit": "%"},
      {"measurement": "Reduction of actin protein", "setting": "[3]; day 2", "result": "more than 90%"},
      {"measurement": "Potency in MNT (micronucleus induction)", "setting": "human fibroblasts [4]", "result": "most potent"},
      {"measurement": "Potency in cytotoxicity", "setting": "human fibroblasts [5]", "result": "most potent"},
      {"measurement": "EC50", "setting": "FoxM1A mRNA", "result": 16, "unit": "nM"}
    ]},
    {"compound": "Cc1cn2nc(-c3cc(=O)n4cc(N5CCN(C)CC5)ccc4n3)cc2c(C)n1", "note": "[Compound 3, 2-(4,6-dimethylpyrazolo[1,5-a]pyrazin-2-yl)-7-(4-methylpiperazin-1-yl)-4H-pyrido[1,2-a]pyrimidin-4-one]", "values": [
      {"measurement": "Actin protein level compared to controls", "setting": "human primary myoblasts [6]", "result": "not altered"},
      {"measurement": "EC50", "setting": "FoxM1B/C mRNA", "result": 3540, "unit": "nM"},
      {"measurement": "Reduction of actin protein level compared to controls", "setting": "human primary myoblasts [7]", "result": 6, "unit": "fold"},
      {"measurement": "FoxM1A levels normalized to actin", "setting": "FoxM1A protein [8]", "result": "undetectable"},
      {"measurement": "Increase of FoxM1A protein level normalized to actin", "setting": "FoxM1A protein [9]", "result": 30, "unit": "fold"},
      {"measurement": "EC50", "setting": "FoxM1A mRNA", "result": 1210, "unit": "nM"}
    ]},
    {"compound": "Cc1cn2nc(-c3cc(=O)n4cc(N5CCNCC5)ccc4n3)cc2c(C)n1", "note": "[Compound 4, 2-(4,6-dimethylpyrazolo[1,5-a]pyrazin-2-yl)-7-(piperazin-1-yl)-4H-pyrido[1,2-a]pyrimidin-4-one]", "values": [
      {"measurement": "EC50", "setting": "FoxM1B/C mRNA", "result": 104, "unit": "nM"},
      {"measurement": "Potency in reduction of Cell Index", "setting": "human fibroblasts [2]", "result": "most potent"},
      {"measurement": "Potency in MNT (micronucleus induction)", "setting": "human fibroblasts [4]", "result": "most potent"},
      {"measurement": "Potency in cytotoxicity", "setting": "human fibroblasts [5]", "result": "most potent"},
      {"measurement": "EC50", "setting": "FoxM1A mRNA", "result": 68, "unit": "nM"}
    ]}
  ]
}
